Here are results for four compounds from patent US20050119289A1 (priority 2002, published 2005).

Values after ≈ are worked out from the molar mass of the structure shown. Read-outs that look alike come from different tables or passages of the source.

For data set [1], the system named is human colon carcinoma HT29 cell line. Description: MTT growth inhibitory assay, HT29. The data set is classed as cell-based. The note with it: Homo sapiens, HT-29, HT29 cells, read-out: IC50 of anti-neoplastic agent used jointly with A3 antagonist. From the text: (§1) The cells are sub-cultured twice a week.
On the technique in general: Tetrazolium assays rely on reduction of a dye to a coloured formazan, in cell work by metabolically active cells.

The test system of data set [2] is human pancreatic cancer Panc-1 cell line. Briefly: MTT growth inhibitory assay, Panc-1. The data set is classed as cell-based. The following applies: PANC-1, Panc-1 cells, read-out: IC50 of anti-neoplastic agent used jointly with A3 antagonist.
Protocol: (§5) For chemotherapeutic enhancement testing, the human melanoma A375, human lung carcinoma SKMES, colon carcinoma HT29, and pancreatic cancer Panc-1 cell lines were originally obtained from the ATCC (American Type Culture Collection) and have been maintained at PRC. […] The cells are cultured in a T25 Falcon Tissue Culture flask in a humidified incubator at 37° C. with 5% CO2-95% air. The cells are sub-cultured twice a week. The doubling times of A375, SKMES, HT29, and Panc-1 cultures are approximately 22, 46, 48, and 60 hr, respectively.
(§6) One of the growth inhibitory assays is the MTT assay. Cells (1000-1500 cells/well) are seeded in a 96-well micro culture plate in a total volume of 100 μl/well. After overnight incubation in a humidified incubator at 37° C. with 5% CO2-95% air, chemotherapeutic drug solutions diluted with culture medium at various concentrations are added in the amount of 100 μl to each well. The plates are placed in a humidified incubator at 37° C. with 5% CO2-95% air for 7-10 days. The plates are then centrifuged briefly and 100 μl of the growth medium is removed. Cell cultures are incubated with 50 μl of MTT [3-(4,5-dimethylthiazol-2-yl)-2,5-diphenyl-tetrazolium bromide] reagent (1 mg/ml in Dulbecco's phosphate-buffered saline) for 4 hr at 37° C. The resultant purple formazan precipitate is solubilized with 200 μl of 0.04 N HCl in isopropanol. Absorbance is measured at a wavelength of 595 nm and at a reference wavelength of 655 nm using a Bio-Rad Model 3550 Microplate Reader. Preferably, all tests are run in duplicate for each dose level.
(§7) The EZED50 computer program estimates the concentration of agent that inhibits cell growth by 50% as compared to the control cells. This is termed the IC50 and is determined by curve fitting test data using the following four logistic equation.
(§8) Inhibitory assay testing is also used to determine enhanced therapeutic effects from combining A3 receptor antagonists with other tumor inhibiting agents. The inhibitory cell growth assays are run with and without selected concentrations of A3 receptor antagonists. An enhanced therapeutic effect is present when the IC50 of the tumor inhibiting agent is lower with the A3 receptor antagonist.
(§9) Quantitatively, the enhancement factor (EF) is calculated by dividing the IC50 value of the tumor inhibiting agent for a tumor cell line by the IC50 value of the agent with A3 receptor antagonist for the same cell line: [formula]
In data set [3] the test system is human lung carcinoma SKMES cell line. Briefly: MTT growth inhibitory assay, SKMES. The format is cell-based. The following applies: SKMES cells, read-out: IC50 of anti-neoplastic agent used jointly with A3 antagonist.
Source text: as §1

The test system of data set [4] is human melanoma A375 cell line.
Protocol: as §5, §6, §7, §8, §9
For data set [5] the following is noted: docetaxel administered at 100 mg/m^2; cited from earlier work.
The subject of data set [6] is human melanoma A375 cell line. Briefly: MTT growth inhibitory assay, A375.
Protocol: as §5, §6, §7, §8, §9
In another data set the test system is A375 cells. Description: Flow cytometry analysis of G2/M accumulation and sub-G1 apoptosis, A375. The data set is classed as cell-based, human. The note with it: for EC50: Homo sapiens, A-375. The protocol:
(§2) A375 and NCTC2544 adherent cells were trypsinized, mixed with floating cells, washed with PBS and permeabilised in 70% (vol/vol) ethanol/PBS solution at 4° C. for at least 24 hours. Jurkat, HeL023 and PBMC cells were centrifuged for 10 minutes at 1000×g. The cell pellet was then resuspended and permeabilised in 70% (vol/vol) ethanol/PBS solution at 4° C. for at least 24 hours. The cells were washed with PBS and the DNA was stained with a PBS solution, containing 20 μg/ml of propidium iodide and 100 μg/ml of RNAse, at room temperature for 30 minutes. Cells were analysed by FACScan (Becton-Dickinson) and the content of DNA was evaluated by the Cell-LISYS program (Becton-Dickinson). Cell distribution among cell cycle phases and apoptotic cells was evaluated as previously described (Secchiero et al., 2001). Briefly, the cell cycle distribution is shown as the percentage of cells containing 2n (G1 phase), 4n (G2 and M phases), 4n>x>2n. DNA amount (S phase) judged by propidium iodide staining. The apoptotic population is the percentage of cells with DNA content lower than 2n.
Cell proliferation and apoptosis are quantified by flow cytometer analysis after propidium-iodide (PI) DNA staining. At 24 hours post-exposure, paclitaxel and vindesine induced a dose dependent cell accumulation into G2/M cell cycle phases and a parallel decrease of the G1 population.
(§3) EC50 values were obtained by analysing G2/M accumulation dose response curve. ECMAXvalues were obtained by analysing sub-G1 accumulation dose response curve. Paclitaxel values have units of ng/ml. Vindesine values have units of nM. nd: not done.
For orientation: Flow cytometry measures light scatter and fluorescence of single cells or particles in a stream.

For the next data set, the system named is HeL023 cells. Description: Flow cytometry analysis of G2/M accumulation and sub-G1 apoptosis, HeL023. The data set is classed as cell-based, human. The note with it: for EC50: Homo sapiens. The protocol:
as §2
(§4) To verify the role of A3 receptor antagonists on paclitaxel and vindesine mediated alteration of cell proliferation and apoptosis, testing was performed with additional cell lines. […] Experimental conditions are similar to those for the A375 cell testing.
as §3

The subject of the next data set is Jurkat cells. Briefly: Flow cytometry analysis of G2/M accumulation and sub-G1 apoptosis, Jurkat. The following applies: for EC50: Homo sapiens. The data set is classed as cell-based, human. The method, then: as §2, §4, §3
For a further data set, the system named is NCTC2544 cells. Briefly: Flow cytometry analysis of G2/M accumulation and sub-G1 apoptosis, NCTC 2544. The format is cell-based, human. The note with it: for EC50: Homo sapiens, NCTC-2544, NCTC 2544; for ECMAX (sub-G1 accumulation): NCTC 2544. The protocol:
as §2, §4, §3

A further data set has as its system PBMC blasts. Briefly: Flow cytometry analysis of G2/M accumulation, PBMC. The following applies: Homo sapiens, vindesine with MRE3008F20 10 μM. The format is cell-based.
For a further data set, the target named is T1, rA1 adenosine receptor (Rattus norvegicus, UniProt P25099).
T1 sequence (P25099 1-326): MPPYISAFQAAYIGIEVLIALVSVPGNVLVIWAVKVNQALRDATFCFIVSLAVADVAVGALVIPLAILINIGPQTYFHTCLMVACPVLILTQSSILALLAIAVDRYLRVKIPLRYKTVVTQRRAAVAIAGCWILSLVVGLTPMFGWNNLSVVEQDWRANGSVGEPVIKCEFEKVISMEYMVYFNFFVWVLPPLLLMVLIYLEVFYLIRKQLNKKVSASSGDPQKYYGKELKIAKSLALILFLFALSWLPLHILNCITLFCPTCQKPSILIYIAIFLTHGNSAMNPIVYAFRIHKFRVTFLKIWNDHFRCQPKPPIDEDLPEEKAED
Briefly: Binding affinity at rA1 adenosine receptors.

For the next data set, the target named is rA2A adenosine receptor (Rattus norvegicus, UniProt P30543). Description: Binding affinity at rA2A adenosine receptors.
rA2A adenosine receptor, sequence (P30543 whole entry): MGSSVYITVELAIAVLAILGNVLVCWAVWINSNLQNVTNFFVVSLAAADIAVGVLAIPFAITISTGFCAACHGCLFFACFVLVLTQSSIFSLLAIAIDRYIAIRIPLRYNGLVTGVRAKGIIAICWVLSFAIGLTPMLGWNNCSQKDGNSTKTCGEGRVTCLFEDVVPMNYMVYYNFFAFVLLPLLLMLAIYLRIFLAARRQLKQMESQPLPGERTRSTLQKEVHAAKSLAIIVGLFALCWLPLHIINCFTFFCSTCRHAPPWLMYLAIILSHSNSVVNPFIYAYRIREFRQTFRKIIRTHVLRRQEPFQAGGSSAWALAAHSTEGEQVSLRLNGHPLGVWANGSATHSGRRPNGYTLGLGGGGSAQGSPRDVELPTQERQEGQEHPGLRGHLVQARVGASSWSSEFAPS
[7] abbreviates: A-375, read-out: IC50 of anti-neoplastic agent used jointly with A3 antagonist, A375 cells, with IL-10 0.5 μg/ml.
Where [8] appears, read: A-375, read-out: IC50 of anti-neoplastic agent used jointly with A3 antagonist, A375 cells, with IL-10 5 μg/ml.
[9] abbreviates: A-375, read-out: IC50 of anti-neoplastic agent used jointly with A3 antagonist, A375 cells, with IL-10 […].
Where [10] appears, read: A-375, read-out: IC50 of anti-neoplastic agent used jointly with A3 antagonist, A375 cells, with IL-11 0.5 μg/ml.
Where [11] appears, read: A-375, read-out: IC50 of anti-neoplastic agent used jointly with A3 antagonist, A375 cells, with IL-11 5 μg/ml.
[12] abbreviates: A-375, read-out: IC50 of anti-neoplastic agent used jointly with A3 antagonist, A375 cells, with MRE3008F20 1 μg/ml.
Where [13] appears, read: A-375, read-out: IC50 of anti-neoplastic agent used jointly with A3 antagonist, A375 cells, with MRE3008F20 3 μg/ml.
The mark [14] stands for this setting: A-375, read-out: IC50 of anti-neoplastic agent used jointly with A3 antagonist, A375 cells, with MRE3008F20 10 μg/ml.
Setting [15] is: paclitaxel with MRE3008F20 10 μM.
[16] abbreviates: vindesine with MRE3008F20 10 μM.

Protocol for PBMC blasts: For multi-drug resistance testing, A375 and NCTC2544 cells are grown adherently and maintained in DMEM and EMEM medium, respectively, containing 10% fetal calf serum, penicillin (100 U/ml), streptomycin (100 μg/ml), L-glutamine (2 mM) at 37° C. in 5% CO2/95% air. HeL023 and Jurkat were grown in RPMI-1640 medium, containing 10% fetal calf serum, penicillin (100 U/ml), streptomycin (100 μg/ml), L-glutamine (2 mM) at 37° C. in 5% CO2/95% air. Cells are passaged two or three times weekly at a ratio between 1:5 and 1:10. Lymphocytes were isolated from buffy coats kindly provided by the Blood Bank of the University Hospital of Ferrara. Blood donated by healthy volunteers, after informed consent for research was obtained. Lymphocytes were isolated by density gradient centrifugation (Ficoll/Histopaque 1.077 g/ml). […]
A375 and NCTC2544 adherent cells were trypsinized, mixed with floating cells, washed with PBS and permeabilised in 70% (vol/vol) ethanol/PBS solution at 4° C. for at least 24 hours. […] Cells were analysed by FACScan (Becton-Dickinson) and the content of DNA was evaluated by the Cell-LISYS program (Becton-Dickinson). Cell distribution among cell cycle phases and apoptotic cells was evaluated as previously described (Secchiero et al., 2001). […]

For the compound `CC(=O)O[C@@]12CO[C@@H]1C[C@H](O)[C@@]1(C)C(=O)[C@H](O)C3=C(C)[C@@H](OC(=O)[C@H](O)[C@@H](NC(=O)OC(C)(C)C)c4ccccc4)C[C@@](O)([C@@H](OC(=O)c4ccccc4)[C@H]21)C3(C)C` [docetaxel], the IC50 in data set [1] (with IL-10 0.5 μg/ml) came to 0.0033 ng/mL (≈ 0.00408 nM); in [1] (with IL-11 0.5 μg/ml), 0.0028 ng/mL (≈ 0.00347 nM); in data set [1] (with MRE3008F20 1 μg/ml), 0.0012 ng/mL (≈ 0.00149 nM); in data set [2] (with IL-10 0.5 μg/ml) it was 0.47 ng/mL (≈ 0.582 nM); in [2] (with IL-11 0.5 μg/ml), 0.5 ng/mL (≈ 0.619 nM); in [2] (with MRE3008F20 1 μg/ml) it was 0.38 ng/mL (≈ 0.47 nM). In addition, the IC50 was 0.17 ng/mL (≈ 0.21 nM) in data set [3] (with IL-10 0.5 μg/ml); 0.25 ng/mL (≈ 0.309 nM) in [3] (with IL-11 0.5 μg/ml); 0.13 ng/mL (≈ 0.161 nM) in data set [3] (with MRE3008F20 1 μg/ml); 0.005 ng/mL (≈ 0.00619 nM) in [4]; 0.0025 ng/mL (≈ 0.00309 nM) in data set [6] (setting [7]); 0.0072 ng/mL (≈ 0.00891 nM) in data set [6] (setting [8]). The IC50 stood at 0.0023 ng/mL (≈ 0.00285 nM) in data set [6] (setting [9]); 0.0087 ng/mL (≈ 0.0108 nM) in data set [6] (setting [10]); 0.0071 ng/mL (≈ 0.00879 nM) in [6] (setting [11]); 0.0006 ng/mL (≈ 0.000743 nM) in data set [6] (setting [12]); 0.0055 ng/mL (≈ 0.00681 nM) in [6] (setting [13]); 0.0072 ng/mL (≈ 0.00891 nM) in data set [6] (setting [14]). In addition, in data set [5], the “acute hypersensitivity reaction, patients” value was 13%. The “severe hypersensitivity reaction, patients” value in data set [5] is 1.2%.

Regarding `CC(=O)O[C@H]1C(=O)[C@@]2(C)[C@H]([C@H](OC(=O)c3ccccc3)[C@]3(O)C[C@H](OC(=O)[C@H](O)[C@@H](NC(=O)c4ccccc4)c4ccccc4)C(C)=C1C3(C)C)[C@]1(OC(C)=O)CO[C@@H]1C[C@@H]2O` [paclitaxel], the IC50 in [1] (with IL-10 0.5 μg/ml) came out at 1 ng/mL (≈ 1.17 nM); in data set [1] (with IL-11 0.5 μg/ml), 0.99 ng/mL (≈ 1.16 nM); in data set [1] (with MRE3008F20 1 μg/ml), 0.85 ng/mL (≈ 0.995 nM); in data set [2] (with IL-10 0.5 μg/ml), 1.7 ng/mL (≈ 1.99 nM); in data set [2] (with IL-11 0.5 μg/ml) it was 1.6 ng/mL (≈ 1.87 nM); in data set [2] (with MRE3008F20 1 μg/ml), 1.5 ng/mL (≈ 1.76 nM). Besides, the IC50 in data set [3] (with IL-10 0.5 μg/ml) came to 1.2 ng/mL (≈ 1.41 nM); in data set [3] (with IL-11 0.5 μg/ml) it was 0.78 ng/mL (≈ 0.913 nM); in [3] (with MRE3008F20 1 μg/ml), 0.8 ng/mL (≈ 0.937 nM); in data set [4], 0.67 ng/mL (≈ 0.785 nM); in [6] (setting [7]), 1.2 ng/mL (≈ 1.41 nM); in data set [6] (setting [8]) it was 0.5 ng/mL (≈ 0.586 nM). The IC50 in [6] (setting [9]) was 0.61 ng/mL (≈ 0.714 nM); in [6] (setting [10]), 1.4 ng/mL (≈ 1.64 nM); in data set [6] (setting [11]), 0.4 ng/mL (≈ 0.468 nM); in [6] (setting [12]), 0.59 ng/mL (≈ 0.691 nM); in [6] (setting [13]), 0.66 ng/mL (≈ 0.773 nM); in data set [6] (setting [14]), 0.54 ng/mL (≈ 0.632 nM). For the same compound, the IC50 in data set [6] (A-375, read-out: IC50 of paclitaxel plus MRE3008F20, IL-10, and IL-11, A375, with 10 μg/ml of MRE3008F20 or 5 μg/ml of IL-10 or IL-11) was 0.4 to 0.54 ng/mL. In addition, the “percentage of apoptotic cells, maximum value” in the data set with A375 cells (A375, paclitaxel at 5 ng/ml, range on different experiments) is on record as 35 to 53%. Also, the “ECMAX, concentration exerting the maximal apoptosis (sub-G1)” value in the data set with A375 cells (A375, paclitaxel with MRE3008F20 10 μM) worked out at 3.04 ± 0.32 ng/mL; with A375 cells (A375, paclitaxel, DMSO (no antagonist)) it was 6.00 ± 0.63 ng/mL. Besides, the “EC50, G2/M accumulation” value in the data set with A375 cells (A375, paclitaxel, DMSO (no antagonist), 24 hours) stood at 16.60 ± 2.00 ng/mL (≈ 19.4 nM). Moreover, the EC50 came out at 8.6 ± 0.81 ng/mL with A375 cells, 4.1 ± 0.4 ng/mL in the data set on HeL023 cells (setting [15]), 2.52 ± 0.3 ng/mL in the data set with Jurkat cells (setting [15]) and 2.41 ± 0.3 ng/mL in the data set with NCTC2544 cells (setting [15]). Moreover, the “ECMAX (sub-G1 accumulation)” value was 3.19 ± 0.30 ng/mL in the data set on HeL023 cells (setting [15]), 2.29 ± 0.31 ng/mL in the data set with Jurkat cells (setting [15]) and 2.55 ± 0.24 ng/mL with NCTC2544 cells (setting [15]).

Regarding `CC[C@]1(O)C[C@@H]2CN(CCc3c([nH]c4ccccc34)[C@@](C(=O)OC)(c3cc4c(cc3OC)N(C)[C@H]3[C@@](O)(C(N)=O)[C@H](O)[C@]5(CC)C=CCN6CC[C@]43[C@@H]65)C2)C1` [vindesine], the “ECMAX, concentration exerting the maximal apoptosis (sub-G1)” value in the data set with A375 cells (A375, vindesine with MRE3008F20 10 μM) stood at 1.66 ± 0.20 nM. Also, the EC50 worked out at 0.48 ± 0.05 nM in the data set with A375 cells; 0.71 ± 0.08 nM with HeL023 cells (setting [16]); 0.37 ± 0.04 nM in the data set on Jurkat cells (setting [16]); 0.51 ± 0.06 nM with NCTC2544 cells (setting [16]); 0.86 ± 0.09 nM with PBMC blasts. Further, the “ECMAX (sub-G1 accumulation)” value amounted to 1.05 ± 0.09 nM in the data set with HeL023 cells (setting [16]); 1.34 ± 0.15 nM with NCTC2544 cells (setting [16]); 2.50 ± 0.27 nM in the data set with NCTC2544 cells (vindesine, DMSO (no antagonist)).

Regarding `CN(C)c1ccc(NC(=O)Nc2nc3nn(C)cc3c3nc(-c4ccco4)nn23)cc1` [IL-11, N-1-(4-dimethylamino-phenyl)-N′-5-[8-methyl-2-(2-furyl)-pyrazolo[4,3-e]1,2,4-triazolo[1,5-c]pyrimidine]-urea], the Ki on rA1 adenosine receptor and at rA2A adenosine receptor was > 10000 nM throughout.

Usually EC50 stands for the concentration giving half of the maximal effect. Low readings indicate a more potent agent, high ones a less potent agent. For orientation: Ki means the equilibrium dissociation constant of an inhibitor or competing ligand from its target. A lower Ki goes with higher affinity.
